Values of other authors, collected in PMC9697394, “Recent Synthesis, Characterization, and Pharmacological Evaluation of Multifunctional Hemorphins Containing Non-Natural Amino Acids with Potential Biological Importance” (Pharmaceuticals, 2022).
Read-outs that look alike come from different tables or passages of the source. Where no end group is shown, it is not given here. [ ]: non-standard residue; d: D form. Ac6c = NC1(C(=O)O)CCCCC1; Orn = NCCC[C@H](N)C(=O)O; Ac5c = NC1(C(=O)O)CCCC1; Dab = NCC[C@H](N)C(=O)O; Dap = NC[C@H](N)C(=O)O; Aib = CC(C)(N)C(=O)O; Sar = CNCC(=O)O

Tests used:
mice [1] = conditions: rotarod
mice [2] = conditions: MES test in mice
[3] = for isoelectric point (pI): Figure 6; for charge at pH 7.4 (in words): based on pKa constants and isoelectric points
Source text: The structure–activity relationship of a series of new analogs of the shortest of all hemorphins, hemorphin-4, was elucidated by Todorov et al. (compounds P4-1, P4-2, P4-3, P4-4, and P4-5). Modifications have been made by replacing Pro at position 2 with the unnatural and conformationally restricted amino acids Ac5c and Ac6c, as well as introducing the adamantane residue from the N-terminus of the hemorphin-4 molecule that would lead to multiple target systems. […] It is known that some identical amino acid residues can have different reactivity with respect to given chemical reagents. For example, in an enzyme molecule, only one or a small number of side chains of amino acid residues located in the “active” center can bind substrates or coenzymes, while others with the same chemical composition cannot. As is known, a large part of the hydro ...

mice [4] = conditions: 6 Hz test in mice, TPE 10 min
Source text: Modifications have been made by replacing Pro at position 2 with the unnatural and conformationally restricted amino acids Ac5c and Ac6c, as well as introducing the adamantane residue from the N-terminus of the hemorphin-4 molecule that would lead to multiple target systems.

[5] = by potentiometric titration
Source text: Table 6 Parameters of the voltammetric measurements and the electrochemical data of peptides. | column: pKa1; pKa2 Constants

rat [6] = conditions: rat blood pressure assay
Source text: Table 5 Bioactive hemorphin peptides. | column: Concentration/Dose; Effect

[7] = at the spinal level; 27.2 nmol i.t.
Source text: (§1) Table 5 Bioactive hemorphin peptides. | column: Effect

WK rats and SHRs = conditions: radiotelemetry in WK rats and SHRs; 100 µg/kg
Source text: as §1

rat [8] = conditions: Barnes circular maze in rat; 100 pmol
Source text: as §1

[9] = test system: rat locus coeruleus neurons; conditions: in vitro LC neurons; read-out: IC50, inhibition of the spontaneous firing
Source text: (§2) Table 5 Bioactive hemorphin peptides. | column: Concentration/Dose

[10] = test system: L929 and K562 tumor cells; conditions: 10^−7–10^−13 M concentration range
Source text: as §1

[11] = test system: tumor (L929 and A549) cell cultures; conditions: 0.5 µM epirubicin added 24 h prior to 1 µM valorphin; 1 µM valorphin added 48 h prior to 0.1 µM epirubicin
Source text: as §1

[12] = test system: cerebellar Purkinje cells; conditions: in vitro cerebellar Purkinje cells
Source text: as §1

mice; rat = conditions: hot plate, tail flick test in mice; Randall–Selitto test in rat
Source text: as §1

[13] = test system: guinea pig ileum muscle preparation; conditions: merged cell of Table 5, read-out: IC50, inhibition of the electrically induced contractions
Source text: as §2

rat mu-opioid receptor = conditions: merged cell of Table 5; read-out: IC50, binds to rat mu-opioid receptor
Source text: as §2

mice [14] = conditions: ivPTZ seizure test in mice; TPE 10 min; rank order, hemorphin-7 analogs containing unnatural amino acids
Source text: Moreover, this peptide analog had the lowest ...

[15] = Table 2 (MES), TPE 10 min, hemorphin-4 analogs, unit inferred
[16] = TPE 10 min, hemorphin-4 analogs
[17] = Table 2 (MES), LVV- and VV-hemorphin-7 analogs, unit inferred
[18] = TPE 10 min, LVV- and VV-hemorphin-7 analogs
[19] = Table 2 (MES), VV-hemorphin-5 analogs, unit inferred
[20] = TPE 10 min, VV-hemorphin-5 analogs
[21] = LVV- and VV-hemorphin-7 analogs
[22] = VV-hemorphin-7 analogs containing unnatural amino acids

O=C1NC(=O)C(c2ccccc2)(c2ccccc2)N1 [Phenytoin, 5,5′-diphenylhydantoin, reference compound]
TD50 (median minimal neurotoxic dose) (mice [1]; TPE 60 min, Table 2, ref not given): >100 mg/kg | ED50 (median effective dose) (mice [2]; TPE 60 min, reference drug, ref not given): 4.92 mg/kg

Aaa-Tyr-Ac5c-Trp-Thr-NH2 [P4-4]
TD50 (median minimal neurotoxic dose) (mice [1]; [15]): > 10 mg/kg | isoelectric point (pI) [3]: about 7 | charge at pH 7.4 (in words) [3]: positively charged | ED50 (median effective dose) (mice [4]; hemorphin-4 analogs): 0.44 µg | pKa1 [5]: 6.16 | pKa2 [5]: 8.90 | ED50 (median effective dose) (mice [2]; [16]): 2.33 µg

Aaa-Tyr-Ac6c-Trp-Thr-NH2 [P4-5]
TD50 (median minimal neurotoxic dose) (mice [1]; [15]): > 10 mg/kg | isoelectric point (pI) [3]: about 7 | charge at pH 7.4 (in words) [3]: positively charged | ED50 (median effective dose) (mice [4]; hemorphin-4 analogs): 0.64 µg | pKa1 [5]: 6.20 | pKa2 [5]: 9.06 | ED50 (median effective dose) (mice [2]; [16]): 0.41 µg

Aaa-Tyr-Pro-Trp-Thr-NH2 [P4-3]
TD50 (median minimal neurotoxic dose) (mice [1]; [15]): > 10 mg/kg | ED50 (median effective dose) (mice [4]; hemorphin-4 analogs): 0.83 µg | pKa1 [5]: 3.88 | pKa2 [5]: 6.93 | ED50 (median effective dose) (mice [2]; [16]): 1.66 µg

D-Leu-Val-Val-Tyr-Pro-Trp-Thr-Gln-Arg-D-Phe-NH2 [H7-3]
TD50 (median minimal neurotoxic dose) (mice [1]; [17]): > 8 mg/kg | pKa1 [5]: 3.05 | pKa2 [5]: 6.78 | ED50 (median effective dose) (mice [2]; [18]): 0.68 µg

DGRVVYPWTQRFRGD-NH2 [RGD2]
pKa1 [5]: 3.48 | pKa2 [5]: 6.34

IVVYPWTQ-NH2 [V6]
TD50 (median minimal neurotoxic dose) (mice [1]; [19]): > 20 mg/kg | ED50 (median effective dose) (mice [4]; VV-hemorphin-5 analogs): 5.55 µg | pKa constant (one value given) [5]: 8.01, [48, 49] | ED50 (median effective dose) (mice [2]; [20]): 16.77 µg

IVVYPWTQR[dF]-NH2 [H7-1]
ED50 (median effective dose) (mice [4]; [21]): 0.33 µg | pKa1 [5]: 2.98 | pKa2 [5]: 6.12

IVYPWTQR[dF]-NH2 [H7-2]
TD50 (median minimal neurotoxic dose) (mice [1]; [17]): > 8 mg/kg | ED50 (median effective dose) (mice [4]; [21]): 2.6 µg | pKa1 [5]: 3.09 | pKa2 [5]: 6.62 | ED50 (median effective dose) (mice [2]; [18]): 0.94 µg

Leu-Val-Val-Tyr-Pro-Trp-Thr-Gln-Arg-Phe [LVV-hemorphin-7]
cardiovascular activity (in words) (rat [6]): pressor and tachycardic activities mediated by the SNS | ED25 (rat [6]; pressor activity): 128.0 nmol/kg | effect on carrageenan-induced hyperalgesia (in words) [7]: decrease | effect on blood pressure (in words) (WK rats and SHRs): Reduce blood pressure | effect on spatial learning (in words) (rat [8]): enhanced spatial learning

Tyr-D-Arg-Phe-Lys-NH2 [DALDA]
IC50 [9]: 20 nM

Tyr-Pro-Leu-Gly-NH2 [Tyr-MIF-1]
IC50 [9]: 37500 nM

Tyr-Pro-Phe-Phe-NH2 [endomorphin-2]
IC50 [9]: 5.3 nM

Tyr-Pro-Phe-Pro-NH2 [morphiceptin]
IC50 [9]: 65 nM

Tyr-Pro-Trp-Gly-NH2 [Tyr-W-MIF-I]
IC50 [9]: 3800 nM

Tyr-Pro-Trp-Phe-NH2 [endomorphin-1]
IC50 [9]: 8.8 nM

Tyr-Pro-Trp-Thr [hemorphin-4]
IC50 [9]: 6700 nM

VVYPWTK-NH2 [V5]
TD50 (median minimal neurotoxic dose) (mice [1]; [19]): > 20 mg/kg | ED50 (median effective dose) (mice [4]; VV-hemorphin-5 analogs): 9.89 µg | pKa constant (one value given) [5]: 8.24, [48, 49] | ED50 (median effective dose) (mice [2]; [20]): 3.19 µg

VVYPWTQ [Valorphin]
effect on tumor cells (in words) [10]: Tumor cell cytolysis | cell death [11]: 100% | effect on spontaneous firing (in words) [12]: inhibition of the spontaneous firing | analgesic effect (in words) (mice; rat): opioid analgesic activity | IC50 [13]: 10 µM | IC50 (rat mu-opioid receptor): 14 nM

VVYPWTQRFRGD-NH2 [RGD1]
pKa1 [5]: 3.53 | pKa2 [5]: 6.42

VVYPWT[Dab]-NH2 [V3]
pKa constant (one value given) [5]: 8.12, [48, 49]

VVYPWT[Dab]RF-NH2 [VV-H-5]
ED50 (median effective dose) (mice [4]; [22]): 0.89 µg | pKa (Dap, Dab) [5]: 7.21 | pKa (Tyr) [5]: 5.98 | pKa (Val) [5]: 8.08

VVYPWT[Dap]-NH2 [V2]
ED50 (median effective dose) (mice [4]; VV-hemorphin-5 analogs): 9.97 µg | pKa constant (one value given) [5]: 9.23, [48, 49]

VVYPWT[Dap]RF-NH2 [VV-H-4]
Comparison of Activity Related to the Threshold Dose (µg/10 µL) for Clonic Seizures (mice [14]): VV–H7 = V–H4 | ED50 (median effective dose) (mice [4]; [22]): 3.83 µg | pKa (Dap, Dab) [5]: 5.46 | pKa (Tyr) [5]: 3.14 | pKa (Val) [5]: 7.10

VVYPWT[Orn]-NH2 [V4]
TD50 (median minimal neurotoxic dose) (mice [1]; [19]): > 20 mg/kg | ED50 (median effective dose) (mice [4]; VV-hemorphin-5 analogs): 5.09 µg | pKa constant (one value given) [5]: 7.83, [48, 49] | ED50 (median effective dose) (mice [2]; [20]): 3.63 µg

VVY[Ac5c]WTQRF-NH2 [VV-H-2]
ED50 (median effective dose) (mice [4]; [22]): 5.69 µg | pKa (Tyr) [5]: 5.34 | pKa (Val) [5]: 8.04

VVY[Ac5c]WT[Dab]RF-NH2 [VV-H-7]
ED50 (median effective dose) (mice [4]; [22]): 0.89 µg | pKa (Dap, Dab) [5]: 7.26 | pKa (Tyr) [5]: 4.70 | pKa (Val) [5]: 8.21

VVY[Ac5c]WT[Dap]RF-NH2 [VV-H-6]
pKa (Dap, Dab) [5]: 6.87 | pKa (Tyr) [5]: 4.72 | pKa (Val) [5]: 8.15

VVY[Ac6c]WTQRF-NH2 [VV-H-3]
ED50 (median effective dose) (mice [4]; [22]): 5.69 µg | pKa (Tyr) [5]: 4.83 | pKa (Val) [5]: 7.49

VVY[Ac6c]WT[Dab]RF-NH2 [VV-H-9]
ED50 (median effective dose) (mice [4]; [22]): 1.09 µg | pKa (Dap, Dab) [5]: 8.80 | pKa (Tyr) [5]: 4.66 | pKa (Val) [5]: 9.08

VVY[Ac6c]WT[Dap]RF-NH2 [VV-H-8]
ED50 (median effective dose) (mice [4]; [22]): 1.01 µg | pKa (Dap, Dab) [5]: 8.03 | pKa (Tyr) [5]: 5.27 | pKa (Val) [5]: 9.20

Y[Ac5c]WT-NH2 [P4-1]
ED50 (median effective dose) (mice [4]; hemorphin-4 analogs): 0.52 µg | pKa1 [5]: 3.89 | pKa2 [5]: 6.52

Y[Ac6c]WT-NH2 [P4-2]
TD50 (median minimal neurotoxic dose) (mice [1]; [15]): > 10 mg/kg | ED50 (median effective dose) (mice [4]; hemorphin-4 analogs): 2.16 µg | pKa1 [5]: 3.93 | pKa2 [5]: 6.71 | ED50 (median effective dose) (mice [2]; [16]): 2.33 µg

Y[dR]F[Sar] [TAPS]
IC50 [9]: 1.9 nM

[Aib]VVYPWTQ-NH2 [V7]
TD50 (median minimal neurotoxic dose) (mice [1]; [19]): > 20 mg/kg | ED50 (median effective dose) (mice [4]; VV-hemorphin-5 analogs): 6.61 µg | pKa constant (one value given) [5]: 8.17, [48, 49] | ED50 (median effective dose) (mice [2]; [20]): 16.55 µg

[dV]VYPWTQR[dF]-NH2 [H7-4]
TD50 (median minimal neurotoxic dose) (mice [1]; [17]): > 15 mg/kg | pKa1 [5]: 3.22 | pKa2 [5]: 6.52 | ED50 (median effective dose) (mice [2]; [18]): 2.54 µg

rhodamineB-Gly-Tyr-Pro-Trp-Thr-NH2 [Rh-1]
pKa1 [5]: 2.81 | pKa2 [5]: 6.60

rhodamineB-β-Ala-Tyr-Pro-Trp- Thr-NH2 [Rh-2]
pKa1 [5]: 2.78 | pKa2 [5]: 6.38

rhodamineB-γ-Abu-Tyr-Pro-Trp-Thr-NH2 [Rh-3]
pKa1 [5]: 2.86 | pKa2 [5]: 6.39
